Reference: the supplement of paper PMC10307832

What was measured:
Assay in all cases: relative viability (nuclei count vs DMSO), 5 days (fraction); higher = more cells survive
GSK126 + Bortezomib = compound: CC[C@H](C)N1C=C(C2=C(C=C(C=C21)C3=CN=C(C=C3)N4CCNCC4)C(=O)NCC5=C(C=C(NC5=O)C)C)C [GSK126] + CC(C)C[C@H](NC(=O)[C@H](Cc1ccccc1)NC(=O)c1cnccn1)B(O)O [Bortezomib] (partner 0.002 µM)
Summary of the method: (§1)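 After 5 days of treatment, lung cancer cells in 1536-well plates were fixed and stained in a single step (final 0.05% Triton X-100, 1% formaldehyde, 1 ug/ml Hoechst) and their nuclei counted on 4× images. Treatment had been applied by pin tool the day after seeding as one drug alone or as a fixed anchor-drug dose with five library-drug doses (not always all listed) in √10 steps. Relative viability is the nuclei count of treated wells divided by that of vehicle wells, and values are medians of duplicate plates.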

GSK126 + Foretinib = compound: CC[C@H](C)N1C=C(C2=C(C=C(C=C21)C3=CN=C(C=C3)N4CCNCC4)C(=O)NCC5=C(C=C(NC5=O)C)C)C [GSK126] + COc1cc2c(Oc3ccc(NC(=O)C4(C(=O)Nc5ccc(F)cc5)CC4)cc3F)ccnc2cc1OCCCN1CCOCC1 [Foretinib] (partner 0.25 µM)
Summary of the method: as §1

[1] = compound: C1CC(C1)(C(=O)O)C(=O)O.[NH2-].[NH2-].[Pt+2] [Carboplatin] + CC(=O)c1c(C)c2cnc(Nc3ccc(N4CCNCC4)cn3)nc2n(C2CCCC2)c1=O [Palbociclib] (partner 0.5 µM)
Summary of the method: as §1

GSK126 + Lapatinib = compound: CC[C@H](C)N1C=C(C2=C(C=C(C=C21)C3=CN=C(C=C3)N4CCNCC4)C(=O)NCC5=C(C=C(NC5=O)C)C)C [GSK126] + CS(=O)(=O)CCNCc1ccc(-c2ccc3ncnc(Nc4ccc(OCc5cccc(F)c5)c(Cl)c4)c3c2)o1 [Lapatinib] (partner 2 µM)
Summary of the method: as §1

Cell Line	relative viability (GSK126 + Bortezomib; first compound 0.08 µM)	relative viability (GSK126 + Bortezomib; first compound 0.253 µM)	relative viability (GSK126 + Bortezomib; first compound 0.8 µM)	relative viability (GSK126 + Bortezomib; first compound 2.53 µM)	relative viability (GSK126 + Bortezomib; first compound 8 µM)	relative viability (GSK126 + Foretinib; first compound 0.08 µM)	relative viability (GSK126 + Foretinib; first compound 0.253 µM)	relative viability (GSK126 + Foretinib; first compound 0.8 µM)	relative viability (GSK126 + Foretinib; first compound 2.53 µM)	relative viability (GSK126 + Foretinib; first compound 8 µM)	relative viability ([1]; first compound 0.08 µM)	relative viability ([1]; first compound 0.253 µM)	relative viability ([1]; first compound 0.8 µM)	relative viability ([1]; first compound 2.53 µM)	relative viability ([1]; first compound 8 µM)	relative viability (GSK126 + Lapatinib; first compound 0.08 µM)	relative viability (GSK126 + Lapatinib; first compound 0.253 µM)	relative viability (GSK126 + Lapatinib; first compound 0.8 µM)	relative viability (GSK126 + Lapatinib; first compound 2.53 µM)	relative viability (GSK126 + Lapatinib; first compound 8 µM)
NCI-H1355	1.27	1.33	1.11	1.17	1.19	1.05	1.05	0.964	1.09	0.979	0.442	0.446	0.415	0.402	0.395	1.04	1.07	0.989	0.967	0.992
NCI-H1437	0.528	0.504	0.442	0.45	0.518	1.32	1.29	1.14	1.26	1.27	0.302	0.316	0.273	0.272	0.31	0.95	0.729	0.776	0.748	0.852
NCI-H1650	0.233	0.25	0.185	0.183	0.19	1.45	1	0.934	1.12	1.09	0.321	0.341	0.359	0.349	0.251	0.828	0.798	0.739	0.854	0.755
NCI-H1651	1.03	0.949	0.981	1.01	0.996	0.736	0.848	0.868	0.702	0.977	0.514	0.488	0.507	0.498	0.413	0.896	0.834	0.805	0.843	0.894
NCI-H1666	0.826	0.962	0.814	0.808	1.01	0.997	0.925	0.918	0.921	0.917	0.687	0.685	0.549	0.602	0.6	0.635	0.608	0.724	0.704	0.695
NCI-H1734	0.98	0.979	1.02	0.87	0.871	0.931	0.868	0.771	0.817	0.904	0.367	0.342	0.356	0.362	0.311	1.07	1	1.03	1.18	1.15
NCI-H1755	0.979	0.978	1.05	0.839	0.922	1.02	0.975	0.962	0.924	0.968	0.477	0.501	0.515	0.441	0.461	1.1	1.07	1.04	1.01	1.1
NCI-H1915	1.02	0.964	0.991	0.979	0.998	1.22	1.16	1.09	1.08	1.2	0.489	0.509	0.523	0.448	0.346	1.08	0.97	1.03	0.978	0.993
NCI-H1975	0.509	0.31	0.361	0.392	0.343	0.952	0.828	0.886	0.873	0.932	0.572	0.625	0.56	0.601	0.518	0.952	0.898	0.916	0.852	0.888
NCI-H1993	1.23	1.06	1.11	1.04	0.995	0.704	0.812	0.726	0.845	0.859	0.596	0.781	0.634	0.627	0.534	0.884	0.737	0.753	0.821	0.712
NCI-H2009	1.3	0.951	0.992	1.16	1.09	1.25	1.25	1.15	1.18	1.35	0.203	0.202	0.182	0.207	0.183	1.23	0.893	0.985	0.942	1.06
NCI-H2023	1.45	1.01	1.19	1.39	1.37	1.02	0.885	0.961	1.05	1.15	0.433	0.384	0.318	0.326	0.121	1.33	0.797	1.04	1.23	1.2
NCI-H2085	1.19	0.998	1.12	1.04	1.05	1.09	1.04	0.855	1.12	1.24	0.473	0.486	0.462	0.456	0.452	0.922	0.847	0.78	0.803	0.78
NCI-H2087	1.02	0.668	0.94	0.941	0.907	1.2	0.999	1.05	1.28	1.13	0.259	0.23	0.208	0.212	0.194	1.41	0.931	1.11	1.22	1.3
NCI-H2126	1.09	1.19	1.12	1.08	1.1	1.19	0.847	1.21	1.28	1.25	0.333	0.354	0.336	0.363	0.353	0.758	0.792	0.726	0.819	0.782
